Source: patent US20060235078A1, “Insulin secretion potentiator” (Use-Techno Corporation, priority 2003, published 2006)

Experiments:
KK-Ay mice = experiment: blood glucose level in KK-Ay mice (genetic type II diabetes model) after oral administration; assay type: in vivo; details: 10 mg/kg oral, blood sampled before and at 4 and 7 hours after administration (tormentic acid: before and 4 hours), n=4, p 0.05
Protocol: KK-Ay mice (CLEA Japan, Inc.), a genetic type II diabetes model, were used as the test animals. […] The animal feeding conditions were at constant temperature (22±2° C.) throughout the test period, and the light-dark period was 12 hours (light period: 9:00 am-9:00 pm). The feed (CE-2, CLEA Japan, Inc.) and water (tap water) were made freely available. The test substance was forcefully administered to the KK-Ay mice using a glass syringe and oral probe. The dose of each test substance was 10 mg/kg. Blood was sampled from the ocular fundus, immediately prior to and at 4 hours and 7 hours after the administration (for tormentic acid, immediately prior to and at 4 hours after the administration). The blood glucose was measured with a Glucose CII Test Wako (Wako Pure Chemical Industries Co., Ltd.).
The test substances used for this example were: corosolic acid (isolated from banaba leaves), maslinic acid (isolated from banaba leaves), asiatic acid (purchased from LKT Laboratories), 2α,19α-dihydroxy-3-oxo-urs-12-en-28-oic acid (isolated from loquat callus), ursolic acid (purchased from LKT Laboratories), oleanolic acid (purchased from LKT Laboratories), α-amyrin (purchased from LKT Laboratories), β-amyrin (purchased from LKT Laboratories), hederagenin (purchased from LKT Laboratories), 18β-glycyrrhetinic acid (purchased from Wako Pure Chemical Industries Co., Ltd.), sapindoside B (isolated from soapberry), and tormentic acid (isolated from loquat callus).
The blood glucose levels were measured using four KK-Ay mice for each test substance. The measurement results were recorded as mean±SE. Significant change in the blood glucose level was judged by Student's t-test with the significance level (p value) as 0.05.

[1] = system: borderline diabetic patients; experiment: glucose tolerance test after administration of corosolic acid or placebo, blood insulin level (IRI) assayed; assay type: in vivo, human; details: 31 borderline diabetic patients, 10 mg oral, 75 g oral glucose load
Protocol: The following test was conducted to confirm that corosolic acid has an early insulin secretion stimulating effect. A glucose tolerance test was performed after administration of corosolic acid or a placebo, in a double-blind crossover manner, and the blood insulin level (IRI: immunoreactive insulin) was assayed. Significant change in the IRI was judged by Student's t-test with the significance level (p value) as 0.05.
First, 31 borderline diabetic patients as test subjects were orally administered corosolic acid (10 mg, ≧99% purity) or a placebo, and blood was sampled immediately thereafter with the blood insulin level at that time designated as the value at 0 minutes. Immediately after blood sampling, 75 g of glucose was orally administered to each test subject to start a glucose tolerance test, and blood was sampled after periods of 30 minutes, 60 minutes, 90 minutes, 120 minutes and 180 minutes for measurement of the blood insulin level.
FIG. 1 is a graph showing changes in the blood insulin levels during the glucose tolerance test. The horizontal axis represents time (minutes) after start of the glucose tolerance test, and the vertical axis represents IRI (μU/mL). In the graph, (a) is a case with administration of corosolic acid and (b) is a case with administration of the placebo.

Compound | hypoglycemic effect (change in blood glucose level) (KK-Ay mice) | blood insulin level (IRI) compared to placebo ([1]; 30 minutes after start of glucose tolerance test) | blood insulin level (IRI) compared to placebo ([1]; 120 minutes after start of glucose tolerance test)
C[C@@H]1CC[C@]2(C(=O)O)CC[C@]3(C)C(=CC[C@@H]4[C@@]5(C)C[C@@H](O)C(=O)C(C)(C)[C@@H]5CC[C@]43C)[C@@H]2[C@]1(C)O [2α,19α-dihydroxy-3-oxo-urs-12-en-28-oic acid] | significant hypoglycemic effects |  | 
CC1(C)[C@@H](O)CC[C@]2(C)[C@H]3C(=O)C=C4[C@@H]5C[C@@](C)(C(=O)O)CC[C@]5(C)CC[C@@]4(C)[C@]3(C)CC[C@@H]12 [18β-glycyrrhetinic acid] | no definite hypoglycemic effect |  | 
CC1(C)CC[C@]2(C(=O)O)CC[C@]3(C)C(=CC[C@@H]4[C@@]5(C)C[C@@H](O)[C@H](O)C(C)(C)[C@@H]5CC[C@]43C)[C@@H]2C1 [Maslinic acid, maslinic acid] | did not exhibit a significant hypoglycemic effect but did exhibit a tendency toward reducing blood glucose level |  | 
C[C@H]1[C@H](C)CC[C@]2(C(=O)O)CC[C@]3(C)C(=CC[C@@H]4[C@@]5(C)C[C@@H](O)[C@H](O)[C@@](C)(CO)[C@@H]5CC[C@]43C)[C@H]12 [asiatic acid] | significant hypoglycemic effects |  | 
C[C@H]1[C@H](C)CC[C@]2(C(=O)O)CC[C@]3(C)C(=CC[C@@H]4[C@@]5(C)C[C@@H](O)[C@H](O)C(C)(C)[C@@H]5CC[C@]43C)[C@H]12 [corosolic acid] | significant hypoglycemic effects | significant increase in blood insulin level | significant drop in blood insulin level
CC1(C)CC[C@]2(C(=O)O)CC[C@]3(C)C(=CC[C@@H]4[C@@]5(C)CC[C@H](O)[C@@](C)(CO)[C@@H]5CC[C@]43C)[C@@H]2C1 [hederagenin] | no definite hypoglycemic effect |  | 
CC1(C)CC[C@]2(C(=O)O)CC[C@]3(C)C(=CC[C@@H]4[C@@]5(C)CC[C@H](O)C(C)(C)[C@@H]5CC[C@]43C)[C@@H]2C1 [oleanolic acid] | no definite hypoglycemic effect |  | 
C[C@@H]1O[C@@H](O[C@H]2[C@H](O[C@H]3CC[C@@]4(C)[C@@H](CC[C@]5(C)[C@@H]4CC=C4[C@@H]6CC(C)(C)CC[C@]6(C(=O)O)CC[C@]45C)[C@]3(C)CO)OC[C@H](O)[C@@H]2O)[C@H](O)[C@H](O[C@@H]2OC[C@@H](O)[C@H](O)[C@H]2O)[C@H]1O [sapindoside B] | no definite hypoglycemic effect |  | 
C[C@@H]1CC[C@]2(C(=O)O)CC[C@]3(C)C(=CC[C@@H]4[C@@]5(C)C[C@@H](O)[C@H](O)C(C)(C)[C@@H]5CC[C@]43C)[C@@H]2[C@]1(C)O [tormentic acid] | significant hypoglycemic effects |  | 
C[C@H]1[C@H](C)CC[C@]2(C(=O)O)CC[C@]3(C)C(=CC[C@@H]4[C@@]5(C)CC[C@H](O)C(C)(C)[C@@H]5CC[C@]43C)[C@H]12 [ursolic acid] | no definite hypoglycemic effect |  | 
C[C@H]1[C@H](C)CC[C@]2(C)CC[C@]3(C)C(=CC[C@@H]4[C@@]5(C)CC[C@H](O)C(C)(C)[C@@H]5CC[C@]43C)[C@H]12 [α-amyrin] | no definite hypoglycemic effect |  | 
CC1(C)CC[C@]2(C)CC[C@]3(C)C(=CC[C@@H]4[C@@]5(C)CC[C@H](O)C(C)(C)[C@@H]5CC[C@]43C)[C@@H]2C1 [β-amyrin] | no definite hypoglycemic effect |  | 
